The first test deals with Human Factor D (Homo sapiens (Human), UniProt P00746). Description: Human Factor D Assay. It is filed as biochemical. The following applies: Table 1; Factor D purified from human serum, 80 nM, substrate Z-L-Lys-SBzl; read-out: IC50. The protocol: Example 12. Human Factor D Assay
Human Factor D, sequence (P00746 26-253): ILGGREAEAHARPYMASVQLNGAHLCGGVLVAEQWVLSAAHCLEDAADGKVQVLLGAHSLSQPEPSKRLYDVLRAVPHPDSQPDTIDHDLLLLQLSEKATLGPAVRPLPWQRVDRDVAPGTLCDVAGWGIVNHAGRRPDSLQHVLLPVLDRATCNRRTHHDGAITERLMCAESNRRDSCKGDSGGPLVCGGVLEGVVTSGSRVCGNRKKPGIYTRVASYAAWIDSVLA
Human Factor D (purified from human serum, Complement Technology, Inc.) at 80 nM final concentration is incubated with test compound at various concentrations for 5 minutes at room temperature in 50 mM Tris, 1M NaCl, pH 7.5. A synthetic substrate Z-L-Lys-SBzl and DTNB (Ellman's reagent) are added to final concentrations of 100 μM each. Absorbance at 405 nm (A405) is recorded at 30 second intervals for 30 minutes using a microplate spectrophotometer. IC50 values are calculated by nonlinear regression of complement Factor D reaction rates as a function of test compound concentration.
Broadly, the IC50 is the concentration that inhibits the measured activity by half. Regarding `CC(=O)c1cn(CC(=O)N2C[C@H](F)C[C@H]2C(=O)Nc2cccc3c2CN(c2ccccn2)C3)c2ccc(Nc3cncnc3)cc12` [Compound 27, (2S,4R)-1-(2-(3-acetyl-5-(pyrimidin-5-ylamino)-1H-indol-1-yl)acetyl)-4-fluoro-N-(2-(pyridin-2-yl)isoindolin-4-yl)pyrrolidine-2-carboxamide], the IC50 was in the range of 1 to 10 µM.

Regarding `CC(=O)c1cn(CC(=O)N2C[C@H](F)C[C@H]2C(=O)Nc2cccc(Cl)n2)c2ccc(Nc3cncnc3)cc12` [Compound 6, (2S,4R)-1-(2-(3-acetyl-5-(pyrimidin-5-ylamino)-1H-indol-1-yl)acetyl)-N-(6-chloropyridin-2-yl)-4-fluoropyrrolidine-2-carboxamide], the IC50 was below 1 µM. With `CC(=O)c1cn(CC(=O)N2C[C@H](F)C[C@H]2C(=O)Nc2cc(C)nn2-c2ccccc2F)c2ccc(Nc3cncnc3)cc12` [Compound 57, (2S,4R)-1-(2-(3-acetyl-5-(pyrimidin-5-ylamino)-1H-indol-1-yl)acetyl)-4-fluoro-N-(1-(2-fluorophenyl)-3-methyl-1H-pyrazol-5-yl)pyrrolidine-2-carboxamide], the IC50 is below 1 µM.

In the case of `CC(=O)c1cn(CC(=O)N2C[C@H](F)C[C@H]2C(=O)Nc2ccc3cn[nH]c3c2)c2ccc(Nc3cncnc3)cc12` [Compound 25, (2S,4R)-1-(2-(3-acetyl-5-(pyrimidin-5-ylamino)-1H-indol-1-yl)acetyl)-4-fluoro-N-(1H-indazol-6-yl)pyrrolidine-2-carboxamide], the IC50 was below 1 µM. With `CC(=O)c1cn(CC(=O)N2C[C@H](F)C[C@H]2C(=O)Nc2ccc3ccccc3c2)c2ccc(Nc3cncnc3)cc12` [Compound 46, (2S,4R)-1-(2-(3-acetyl-5-(pyrimidin-5-ylamino)-1H-indol-1-yl)acetyl)-4-fluoro-N-(naphthalen-2-yl)pyrrolidine-2-carboxamide], the IC50 is below 1 µM.

`CC(=O)c1cn(CC(=O)N2C[C@H](F)C[C@H]2C(=O)NC2CCCc3nc(-c4ccc(F)cc4)sc32)c2ccc(Nc3cncnc3)cc12` (stereo partly drawn) [Compound 28, (2S,4R)-1-(2-(3-acetyl-5-(pyrimidin-5-ylamino)-1H-indol-1-yl)acetyl)-4-fluoro-N-(2-(4-fluorophenyl)-4,5,6,7-tetrahydrobenzo[d]thiazol-7-yl)pyrrolidine-2-carboxamide]: the IC50 was above 10 µM.

Consider `CC(=O)c1cn(CC(=O)N2C[C@H](F)C[C@H]2C(=O)Nc2noc(-c3ccccc3Cl)n2)c2ccc(Nc3cncnc3)cc12` [Compound 62, (2S,4R)-1-(2-(3-acetyl-5-(pyrimidin-5-ylamino)-1H-indol-1-yl)acetyl)-N-(5-(2-chlorophenyl)-1,2,4-oxadiazol-3-yl)-4-fluoropyrrolidine-2-carboxamide], for which the IC50 is below 1 µM. Take `CC(=O)c1cn(CC(=O)N2C[C@H](F)C[C@H]2C(=O)Nc2nn(C)c3c2CC(C)C(=O)N3)c2ccc(Nc3cncnc3)cc12` (stereo partly drawn) [Compound 67, (2S 4R)-1-(2-(3-acetyl-5-(pyrimidin-5-ylamino)-1H-indol-1-yl)acetyl)-N-(1,5-dimethyl-6-oxo-4,5,6,7-tetrahydro-1H-pyrazolo[3,4-b]pyridin-3-yl)-4-fluoropyrrolidine-2-carboxamide]: the IC50 was 1 to 10 µM. The same measure, in the same setting: to `CC(=O)c1cn(CC(=O)N2C[C@H](F)C[C@H]2C(=O)NC2CCCN(c3ccccc3Cl)C2=O)c2ccc(Nc3cncnc3)cc12` (stereo partly drawn) [Compound 58, (2S,4R)-1-(2-(3-acetyl-5-(pyrimidin-5-ylamino)-1H-indol-1-yl)acetyl)-N-(1-(2-chlorophenyl)-2-oxopiperidin-3-yl)-4-fluoropyrrolidine-2-carboxamide] belongs below 1 µM; to `CC(=O)c1cn(CC(=O)N2C[C@H](F)C[C@H]2C(=O)N[C@@H](C)c2oc3ccc(F)cc3c2C)c2ccc(Nc3cncnc3)cc12` [Compound 75, (2S,4R)-1-(2-(3-acetyl-5-(pyrimidin-5-ylamino)-1H-indol-1-yl)acetyl)-4-fluoro-N-((S)-1-(5-fluoro-3-methylbenzofuran-2-yl)ethyl) pyrrolidine-2-carboxamide], below 1 µM; to `CC(=O)c1cn(CC(=O)N2C[C@H](F)C[C@H]2C(=O)Nc2cc(O)ccn2)c2ccc(Nc3cncnc3)cc12` [Compound 72, (2S,4R)-1-(2-(3-acetyl-5-(pyrimidin-5-ylamino)-1H-indol-1-yl)acetyl)-4-fluoro-N-(4-hydroxypyridin-2-yl)pyrrolidine-2-carboxamide], below 1 µM.

With `CCN1Cc2ccc(NC(=O)[C@@H]3C[C@@H](F)CN3C(=O)Cn3cc(C(C)=O)c4cc(Nc5cncnc5)ccc43)cc2C1=O` [Compound 23, (2S,4R)-1-(2-(3-acetyl-5-(pyrimidin-5-ylamino)-1H-indol-1-yl)acetyl)-N-(2-ethyl-3-oxoisoindolin-5-yl)-4-fluoropyrrolidine-2-carboxamide], the IC50 is below 1 µM.

As to `CC(=O)c1cn(CC(=O)N2C[C@H](F)C[C@H]2C(=O)NC2CCCN(c3cnn(C)c3)C2)c2ccc(Nc3cncnc3)cc12` (stereo partly drawn) [Compound 42, (2S,4R)-1-(2-(3-acetyl-5-(pyrimidin-5-ylamino)-1H-indol-1-yl)acetyl)-4-fluoro-N-(1-(1-methyl-1H-pyrazol-4-yl)piperidin-3-yl)pyrrolidine-2-carboxamide], the IC50 is below 1 µM. As to `CC(=O)c1cn(CC(=O)N2C[C@H](F)C[C@H]2C(=O)Nc2cc3c(cc2F)OC(F)(F)O3)c2ccc(Nc3cncnc3)cc12` [Compound 35, (2S,4R)-1-(2-(3-acetyl-5-(pyrimidin-5-ylamino)-1H-indol-1-yl)acetyl)-4-fluoro-N-(2,2,6-trifluorobenzo[d] [1,3]dioxol-5-yl)pyrrolidine-2-carboxamide], the IC50 was below 1 µM. `CC(=O)c1cn(CC(=O)N2C[C@H](F)C[C@H]2C(=O)NCc2ccncc2)c2ccc(Nc3cncnc3)cc12` [Compound 59, (2S,4R)-1-(2-(3-acetyl-5-(pyrimidin-5-ylamino)-1H-indol-1-yl)acetyl)-4-fluoro-N-(pyridin-4-ylmethyl) pyrrolidine-2-carboxamide]: the IC50 was below 1 µM. In the case of `CC(=O)c1cn(CC(=O)N2C[C@H](F)C[C@H]2C(=O)Nc2cccnc2)c2ccc(Nc3cncnc3)cc12` [Compound 31, (2S,4R)-1-(2-(3-acetyl-5-(pyrimidin-5-ylamino)-1H-indol-1-yl)acetyl)-4-fluoro-N-(pyridin-3-yl)pyrrolidine-2-carboxamide], the IC50 was below 1 µM. Same read-out and setting: next, `CC(=O)c1cn(CC(=O)N2C[C@H](F)C[C@H]2C(=O)Nc2ccc(F)c(-c3nnc4n3CCCCC4)c2)c2ccc(Nc3cncnc3)cc12` [Compound 26, (2S,4R)-1-(2-(3-acetyl-5-(pyrimidin-5-ylamino)-1H-indol-1-yl)acetyl)-4-fluoro-N-(4-fluoro-3-(6,7,8,9-tetrahydro-5H-[1,2,4]triazolo[4,3-a]azepin-3-yl)phenyl) pyrrolidine-2-carboxamide]: below 1 µM.

The test is the same for the next values; noted with them: Table 3; Factor D purified from human serum, 80 nM, substrate Z-L-Lys-SBzl; read-out: IC50 (Stars).
With `CC(=O)c1nn(CC(=O)N2[C@H](C(=O)Nc3nc(Br)ccc3C)C[C@@]3(C)C[C@@H]23)c2ccc(Nc3cncc(F)c3)cc12` [Compound 165, (1R,3S,5R)-2-(2-(3-acetyl-5-((5-fluoropyridin-3-yl)amino)-1H-indazol-1-yl)acetyl)-N-(6-bromo-3-methylpyridin-2-yl)-5-methyl-2-azabicyclo[3.1.0] hexane-3-carboxamide], the half-inhibitory concentration (IC50) is below 1 µM. `CC(=O)c1cn(CC(=O)N2CC[C@H]2C(=O)Nc2cccc(C)n2)c2ccc(Nc3cncnc3)cc12` [Compound 160, (S)-1-(2-(3-acetyl-5-(pyrimidin-5-ylamino)-1H-indol-1-yl)acetyl)-N-(6-methylpyridin-2-yl)azetidine-2-carboxamide]: the IC50 is above 10 µM. In the case of `CC(=O)c1cn(CC(=O)N2C[C@H](F)C[C@H]2C(=O)NCc2ccccc2)c2ccc(Nc3cccnc3)cc12` [Compound 146, (2S,4R)-1-(2-(3-acetyl-5-(pyridin-3-ylamino)-1H-indol-1-yl)acetyl)-N-benzyl-4-fluoropyrrolidine-2-carboxamide], the IC50 was below 1 µM.

For the compound `Cc1cccc(NC(=O)[C@@H]2[C@@H]3CCC(C3)N2C(=O)Cn2cc(C(N)=O)c3cc(Nc4ccc(Cl)nn4)ccc32)n1` [Compound 162, 5-((6-chloropyridazin-3-yl)amino)-1-(2-((3S,4R)-3-((6-methylpyridin-2-yl)carbamoyl)-2-azabicyclo[2.2.1]heptan-2-yl)-2-oxoethyl)-1H-indole-3-carboxamide], the IC50 was below 1 µM. Still for that read-out and setting: next, `CC(=O)c1cn(CC(=O)N2C[C@H](F)C[C@H]2C(=O)NCCCc2ccccc2)c2ccc(Nc3cccnc3)cc12` [Compound 150, (2S,4R)-1-(2-(3-acetyl-5-(pyridin-3-ylamino)-1H-indol-1-yl)acetyl)-4-fluoro-N-(3-phenylpropyl) pyrrolidine-2-carboxamide]: below 1 µM. For `CC(=O)c1nn(CC(=O)N2C[C@H](F)C[C@H]2C(=O)Nc2cccc(Br)n2)c2ccc(Nc3cnc(C)nc3)cc12` [Compound 163, (2S,4R)-1-(2-(3-acetyl-5-((2-methylpyrimidin-5-yl)amino)-1H-indazol-1-yl)acetyl)-N-(6-bromopyridin-2-yl)-4-fluoropyrrolidine-2-carboxamide], the IC50 is below 1 µM. Same read-out and setting: to `CC(=O)c1cn(CC(=O)N2C[C@H](F)C[C@H]2C(=O)NCCCc2ccccc2)c2ccc(Nc3cncnc3)cc12` [Compound 155, (2S,4R)-1-(2-(3-acetyl-5-(pyrimidin-5-ylamino)-1H-indol-1-yl)acetyl)-4-fluoro-N-(3-phenylpropyl) pyrrolidine-2-carboxamide] belongs below 1 µM.

(Values after US10660876B2, “Amino compounds for treatment of medical disorders” (Achillion Pharmaceuticals, Inc., priority 2015, dated 2020).)
